Columns and labels:
LecA [1] = biological target: T1, LecA (Pseudomonas aeruginosa, UniProt Q05097); test: competitive binding assay based on fluorescence polarisation (FP); details: FP IC50, Table 1, 20 μM LecA
T1 construct: made in house
Description: Binding of ligands to LecA was evaluated in competitive assay based on fluorescence polarisation.

LecA [2] = biological target: T1, LecA; test: surface plasmon resonance (SPR) direct binding to immobilised LecA
Description: All experiments were performed on a BIACORE X100 instrument (GE Healthcare) at 25° C. and a flow rate of 10 μL min^−1. […] LecA was dissolved in 10 mM sodium acetate pH 4.5 (100 μg mL^−1) and injected over the activated chip surface on channel 2 (contact time of 540 s) until the response of ˜4000 RU was reached. Excess free amine groups were capped with an injection of 1 M ethanolamine (contact time 540 s). Bivalent compounds were dissolved in 100% DMSO and subsequently diluted to required concentrations in a running buffer (10 mM phosphate buffer pH 7.4, 2.7 mM KCl, 137 mM NaCl, 100 μM CaCl2, 0.05% Tween 20, 5% DMSO). The bivalent analytes were subjected to single-cycle kinetics analyses (contact time of 120 s and dissociation time of 120 s) consisting of injections of the analytes at 0, 10, 50, 100, and 200 nM over the immobilised-LecA. The chip surface was regenerated by 5× injections of 100 μM 4-nitrophenyl-β-D-galactose (contact time of 120 s). KD determination was performed using BIACORE X100 evaluation software (version 2.0) by applying 1:1 binding model to fit the experimental data. • [1] H. E. Gottlieb, V. Kotlyar, A. Nudelman, J. Org. Chem. 1997, 62, 7512-7515. • [2] M. Seligman, J. Biol. Chem. 1952, 195, 239-249. • [3] S. T. Xue, W. Y. He, L. L. Ma, H. Q. Wang, B. Wang, G. H. Zheng, X. Y. Ji, T. Zhang, Y. H. Li, J. D. Jiang, et al., Molecules 2013, 18, 3789-3805. • [4] Y. Li, H. Mo, G. Lian, B. Yu, Carbohydr. Res. 2012, 363, 14-22. • [5] F. Yang, F. Xie, Y. Zhang, Y. Xia, W. Liu, F. Jiang, C. Lam, Y. Qiao, D. Xie, J. Li, et al., Bioorganic Med. Chem. Lett. 2017, 27, 2166-2170. Synthesis Schemes and Results of Biophysical Assays

LecA [3] = biological target: T1, LecA; test: isothermal titration microcalorimetry (ITC); type: binding; details: ITC Kd, Table 1; TBS/Ca2+ buffer, 25° C.
Description: Expression and purification of LecA as well as competitive binding by fluorescence polarization was performed as described by Joachim et al. (Org. Biomol. Chem. 2016). Microcalorimetry was performed using an ITC200 (GE Healthcare) at highest possible LecA concentration (typically 200-400 μM) in the cell and titration of ligand in the same buffer at 25° C.

T1 sequence (Q05097 whole entry): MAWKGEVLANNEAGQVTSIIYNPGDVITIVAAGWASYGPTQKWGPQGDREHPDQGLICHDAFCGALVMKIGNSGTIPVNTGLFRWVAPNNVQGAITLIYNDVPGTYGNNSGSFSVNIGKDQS

## COc1ccc(C=NNC(=O)c2cccc(OC3OC(CO)C(O)C(O)C3O)c2)cc1 (stereo not drawn) [Compound F6m]
LecA [1]; 10 nM reporter ligand 8, TBS/Ca2+ buffer with 25% DMSO (**)
  IC50: 21.6 ± 4.5 µM
LecA [2]
  Kd: 4.9 ± 0.1 µM
LecA [3]
  Kd: 2.4 ± 1.33 µM

## COc1ccc(C=NNC(=O)c2ccc(OC3OC(CO)C(O)C(O)C3O)cc2)cc1 (stereo not drawn) [Compound F6p]
LecA [1]; 10 nM reporter ligand 8, TBS/Ca2+ buffer with 4% DMSO (*)
  IC50: 23.1 µM
LecA [2]
  Kd: 4.8 ± 2.1 µM
LecA [3]
  Kd: 6.11 ± 0.48 µM

Reference: US12545699B2, “Bivalent LECA inhibitors targeting biofilm formation of Pseudomonas aeruginosa” (HELMHOLTZ-ZENTRUM FÜR INFEKTIONSFORSCHUNG GMBH, priority 2019, dated 2026)
